Among the data in patent US6107274A, “Piperazines as inhibitors of fructose-1,6-bisphosphatase (FBPase)” (Ontogen Corporation, priority 1999, dated 2000) are IC50 values, retold here.

One assay concerns the target T1, fructose-1,6-bisphosphatase (FBPase) (Homo sapiens, UniProt P09467).
T1 sequence (P09467 1-338): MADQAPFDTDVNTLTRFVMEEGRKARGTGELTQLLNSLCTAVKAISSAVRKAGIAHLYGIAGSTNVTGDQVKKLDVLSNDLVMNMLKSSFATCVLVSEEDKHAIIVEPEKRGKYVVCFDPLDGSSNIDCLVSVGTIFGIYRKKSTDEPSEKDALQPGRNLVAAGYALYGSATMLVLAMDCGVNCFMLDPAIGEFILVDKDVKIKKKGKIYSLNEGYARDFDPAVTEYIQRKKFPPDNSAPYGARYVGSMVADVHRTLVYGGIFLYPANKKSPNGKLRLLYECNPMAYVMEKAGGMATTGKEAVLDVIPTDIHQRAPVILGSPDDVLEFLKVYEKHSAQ
The assay can be described thus: FBPase inhibition assay (Taketa and Pogell): conversion of fructose-1,6-bisphosphate to fructose-6-phosphate, NADPH formation at 340 nm via coupled reactions. The class given is biochemical. As to conditions: concentration of inhibitor giving 50% inhibition of FBPase activity; read-out: IC50. Here is the method:
The above compounds are assayed utilizing the procedure described by Taketa and Pogell (J. Biol. Chem. 240:651 (1965)), wherein the conversion of fructose-1,6-bisphosphate to fructose-6-phosphate is measured by monitoring the conversion of NADP to NADPH through two coupled reactions mediated by phosphoglucose isomerase and glucose-6-phosphate dehydrogenase. The increase in NADPH concentration during the course of the reactions was determined by measuring the increase in absorption at 340 nm. The controls used in the assay were adenosine monophosphate CAMP, 1(50 1.4±0.5 μM) and fructose 2.6-bisphosphate (1(50 2.9±0.9 μM). The results obtained of the above compounds are as follows (Table 2):
In Table 2, IC50 represents the concentration of inhibitor, which would result in 50% inhibition of FBPase activity. The Roman numbers designate the compounds' numbers as depicted in Formula A for which inhibition of FBPase activity has been measured.
As for `O=C(NCCc1ccc(O)cc1)C(c1ccc([N+](=O)[O-])cc1)N1C(=O)[C@H](Cc2ccccc2)NC(=O)[C@@H]1CC1CCCCC1` (some centres unmarked) [Compound VI, 2-(3-Benzyl-6-cyclohexylmethyl-2,5-dioxo-piperazin-1-yl)-N-[2-(4-hydroxy-phenyl)-ethyl]-2-(4-nitro-phenyl)-acetamide], the IC50 (usually the concentration needed to halve the response being measured) worked out at 24 µM.
As to `CCCC(C(=O)NCCc1ccc(O)cc1)N1C(=O)[C@@H]2Cc3ccccc3CN2C(=O)[C@@H]1Cc1ccc(O)cc1` (some centres unmarked) [Compound XI, 2-[3-(4-Hydroxy-benzyl)-1,4-dioxo-1,3,4,6,11,11a-hexahydro-pyrazino[1,2-b]isoquinolin-2-yl]-pentanoic acid [2-(4-hydroxy-phenyl)-ethyl]-amide], the IC50 is 45 µM.
Still for that read-out and setting: as for `CCCC(C(=O)NCCc1ccc(O)cc1)N1C(=O)[C@@H]2Cc3ccccc3CN2C(=O)[C@@H]1Cc1ccccc1` (some centres unmarked) [Compound IX, 2-(3-Benzyl-1,4-dioxo-1,3,4,6,11,11a-hexahydro-pyrazino[1,2-b]isoquinolin-2-yl)-pentanoic acid [2-(4-hydroxy-phenyl)-ethyl]-amide], the figure is 34 µM.
Turning to `N#Cc1ccc(C(C(=O)NCCc2ccc(O)cc2)N2C(=O)[C@@H]3Cc4ccccc4CN3C(=O)[C@@H]2CC2CCCCC2)cc1` (some centres unmarked) [Compound II, 2-(4-Cyano-phenyl)-2-(3-cyclohexylmethyl-1,4-dioxo-1,3,4,6,11,11a-hexahydro-pyrazino[1,2-b]isoquinolin-2-yl)-N-[2-(4-hydroxy-phenyl)-ethyl]-acetamide], the IC50 turned out to be 2.1 µM.
On the same count and under the same terms, as for `NC(=O)c1ccc(C(C(=O)NCCc2ccc(F)cc2)N2C(=O)[C@@H]3Cc4ccccc4CN3C(=O)[C@@H]2CC2CCCCC2)cc1` (some centres unmarked) [Compound VIII, 4-{(3-Cyclohexylmethyl-1,4-dioxo-1,3,4,6,11,11a-hexahydro-pyrazino[1,2-b]isoquinolin-2-yl)-[2-(4-fluoro-phenyl)-ethylcarbamoyl]-methyl}-benzamide], the figure is 32 µM; as for `N#Cc1ccc(C(C(=O)NCCc2ccc(O)cc2)N2C(=O)[C@@H]3Cc4ccccc4CN3C(=O)[C@@H]2Cc2ccccc2)cc1` (some centres unmarked) [Compound IV, 2-(3-Benzyl-1,4-dioxo-1,3,4,6,11,11a-hexahydro-pyrazino[1,2-b]isoquinolin-2-yl)-2-(4-cyano-phenyl)-N-[2-(4-hydroxy-phenyl)-ethyl]-acetamide], 15 µM.
In the case of `O=C(O)CCCCCNC(=O)C(c1ccc(Oc2ccccc2)cc1)N1C(=O)C(Cc2ccc([N+](=O)[O-])cc2)NC(=O)C1Cc1ccccc1` (centres unmarked) [Compound XVIII, 6-[2-[2-Benzyl-5-(4-nitro-benzyl)-3,6-dioxo-piperazin-1-yl]-2-(4-phenoxy-phenyl)-acetylamino]-hexanoic acid], the IC50 turned out to be 95 µM.
Same read-out and setting: as for `Cc1ccc(C(C(=O)NCCc2ccc(O)cc2)N2C(=O)[C@@H]3Cc4ccccc4CN3C(=O)[C@@H]2C)cc1` (some centres unmarked) [Compound XVII, N-[2-(4-Hydroxy-phenyl)-ethyl]-2-(3-methyl-1,4-dioxo-1,3,4,6,11,11a-hexahydro-pyrazino[1,2-b]isoquinolin-2-yl)-2-p-tolyl-acetamide], the figure is 37 µM; as for `O=C(O)c1ccc(CNC(=O)C(c2ccc3c(c2)-c2ccccc2C3)N2C(=O)C3Cc4ccccc4CN3C(=O)C2Cc2ccccc2)cc1` (centres unmarked) [Compound XV, 4-{[2-(3-Benzyl-1,4-dioxo-1,3,4,6,11,11a-hexahydro-pyrazino[1,2-b]isoquinolin-2-yl)-2-(9H-fluoren-3-yl)-acetylamino]-methyl}-benzoic acid], 27 µM; as for `N#Cc1ccc(C(C(=O)NCCc2cccc(O)c2)N2C(=O)[C@@H]3Cc4ccccc4CN3C(=O)[C@@H]2CC2CCCCC2)cc1` (some centres unmarked) [Compound III, 2-(4-Cyano-phenyl)-2-(3-cyclohexylmethyl-1,4-dioxo-1,3,4,6,11,11a-hexahydro-pyrazino[1,2-b]isoquinolin-2-yl)-N-[2-(3-hydroxy-phenyl)-ethyl]-acetamide], 8 µM.
Same read-out and setting: as for `CCCCCC(C(=O)NCCc1ccc(O)cc1)N1C(=O)[C@@H]2Cc3ccccc3CN2C(=O)[C@@H]1Cc1ccc(O)cc1` (some centres unmarked) [Compound X, 2-[3-(4-Hydroxy-benzyl)-1,4-dioxo-1,3,4,6,11,11a-hexahydro-pyrazino[1,2-b]isoquinolin-2-yl]-heptanoic acid [2-(4-hydroxy-phenyl)-ethyl]-amide], the figure is 40 µM; as for `O=C(O)c1ccc(CNC(=O)C(c2ccc(Oc3ccccc3)cc2)N2C(=O)[C@@H]3Cc4ccccc4CN3C(=O)[C@@H]2CC2CCCCC2)cc1` (some centres unmarked) [Compound XIV, 4-{[2-(3-Cyclohexylmethyl-1,4-dioxo-1,3,4,6,11,11a-hexahydro-pyrazino [1,2-b]isoquinolin-2-yl)-2-(4-phenoxy-phenyl)-acetylamino]-methyl}-benzoicacid], 24 µM.
`CC(C)C[C@H]1C(=O)N2Cc3ccccc3C[C@H]2C(=O)N1C(C(=O)NCCc1ccc(O)cc1)c1ccc([N+](=O)[O-])cc1` (some centres unmarked) [Compound V, N-[2-(4-Hydroxy-phenyl)-ethyl]-2-(3-isobutyl-1,4-dioxo-1,3,4,6,11,11a-hexahydro-pyrazino[1,2-b]isoquinolin-2-yl)-2-(4-nitro-phenyl)-acetamide]: the IC50 came to 21 µM.
Regarding `O=C(O)CCCCCNC(=O)C(c1ccc(Oc2ccccc2)cc1)N1C(=O)[C@H](Cc2ccccc2)NC(=O)[C@@H]1CC1CCCCC1` (some centres unmarked) [Compound XVI, 6-[2-(3-Benzyl-6-cyclohexylmethyl-2,5-dioxo-piperazin-1-yl)-2-(4-phenoxy-phenyl)-acetylamino]-hexanoic acid], the IC50 worked out at 34 µM.
Regarding `CC(C)C[C@H]1C(=O)N2Cc3ccccc3C[C@H]2C(=O)N1C(C(=O)NCCc1ccc(O)cc1)c1ccc(C#N)cc1` (some centres unmarked) [Compound VII, 2-(4-Cyano-phenyl)-N-[2-(4-hydroxy-phenyl)-ethyl]-2-(3-isobutyl-1,4-dioxo-1,3,4,6,11,11a-hexahydro-pyrazino[1,2-b]isoquinolin-2-yl)-acetamide], the IC50 was found to be 30 µM.
`N#Cc1ccc(C(C(=O)NCc2ccc(C(=O)N3CCOCC3)cc2)N2C(=O)[C@@H]3Cc4ccccc4CN3C(=O)[C@@H]2CC2CCCCC2)cc1` (some centres unmarked) [Compound XIII, 2-(4-Cyano-phenyl)-2-(3-cyclohexylmethyl-1,4-dioxo-1,3,4,6,11,11a-hexahydro-pyrazino[1,2-b]isoquinolin-2-yl)-N-[4-(morpholine-4-carbonyl)-benzyl]-acetamide]: the concentration for half-maximal inhibition (IC50) is 57 µM.
As for `N#Cc1ccc(C(C(=O)NCCc2ccc(O)cc2)N2C(=O)C3Cc4ccc(O)cc4CN3C(=O)[C@@H]2CC2CCCCC2)cc1` (some centres unmarked) [Compound I, 2-(4-Cyano-phenyl)-2-(3-cyclohexylmethyl-8-hydroxy-1,4-dioxo-1,3,4,6,11,11a-hexahydro-pyrazino[1,2-b]isoquinolin-2-yl)-N-[2-(4-hydroxy-phenyl)-ethyl]-acetamide], the IC50 worked out at 0.37 µM.
Same read-out and setting: as for `CC(C)CC(C(=O)NCCc1ccc(O)cc1)N1C(=O)[C@@H]2Cc3ccccc3CN2C(=O)[C@@H]1Cc1ccc(O)cc1` (some centres unmarked) [Compound XII, 2-[3-(4-Hydroxy-benzyl)-1,4-dioxo-1,3,4,6,11,11a-hexahydro-pyrazino[1,2-b]isoquinolin-2-yl]-4-methyl-pentanoic acid [2-(4-hydroxy-phenyl)-ethyl]-amide], the figure is 54 µM.

Still in this assay, the particulars now being: controls used in the assay; read-out: 1(50 [IC50] of the assay controls.
Take `O=P(O)(O)OC[C@H]1O[C@@](CO)(OP(=O)(O)O)[C@@H](O)[C@@H]1O` [fructose 2.6-bisphosphate, reference compound]: the IC50 turned out to be 2.9 ± 0.9 µM.
On the same count and under the same terms, as for `Nc1ncnc2c1ncn2[C@@H]1O[C@H](COP(=O)(O)O)[C@@H](O)[C@H]1O` [adenosine monophosphate, reference compound], the figure is 1.4 ± 0.5 µM.
